According to US11479551B2, “MTA-cooperative PRMT5 inhibitors” (Mirati Therapeutics, Inc., priority 2019, dated 2022):

How the values were obtained:
PRMT5/MEP50 complex [1] = molecular target: T1, PRMT5/MEP50 complex (Homo sapiens (Human), UniProt O14744); test: PRMT5:MEP50 FlashPlate Assay (histone H4 peptide substrate, plus and minus MTA); assay type: biochemical
Procedure: The PRMT5 inhibitory activity of compounds of the present invention was determined using either a PRMT5:MEP50 FlashPlate Assay (Reaction Biology Corporation) or a PRMT5:MEP50 HotSpot Assay (Reaction Biology Corporation).
1. PRMT5:MEP50 FlashPlate Assay

PRMT5/MEP50 complex [2] = molecular target: T1, PRMT5/MEP50 complex; test: PRMT5:MEP50 HotSpot Assay (full-length histone H2A substrate, plus and minus MTA); assay type: biochemical; settings: IC50 + 2 μM MTA, in the presence of 2 μM MTA
Outline: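 Radiometric filter-binding format using recombinant full-length histone H2A as substrate. After the reaction was stopped, mixtures went onto filter paper and tritiated H2A was quantified by scintillation counting.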

HCT116 parental cells = test: Proliferation assay (CellTiter-Glo, 10 days of treatment), HCT116 parental; assay type: cell-based; settings: Homo sapiens, HCT-116, 240 h
Outline: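 250 cells seeded in McCoy's 5A with 10% FBS, then given a dose response of PRMT5 inhibitor at 37 °C, 5% CO2 for five days. Cells were split 1:10 on Day 6 into fresh medium with the same compound concentration for 5 more days. Viability read on Day 11 by CellTiter-Glo; IC50 after 10 days of treatment.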

[3] = tested on: HCT116 homozygous MTAP knockout cells; test: Proliferation assay (CellTiter-Glo, 10 days of treatment), HCT116 MTAP knockout; assay type: cell-based; settings: Homo sapiens, HCT-116, 240 h, read-out: Proliferation HCT116MTAP_KO IC50
Outline: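 Cells (250/well) seeded in McCoy's 5A with 10% FBS, then treated the next day with a PRMT5 inhibitor dose response at 37 °C, 5% CO2. On day 6 they were split 1:10 into fresh medium with the same compound concentration. CellTiter-Glo viability was read on day 11 and IC50 taken after 10 days of treatment.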

[4] = tested on: PRMT5-dependent Symmetric Di-methyl Arginine signal in HCT116 parental cells; test: SYM11 In-Cell Western, HCT116 parental; assay type: cell-based; settings: Homo sapiens, HCT-116, 96 h, 4 days of treatment, SYM11/DRAQ5 ratio
Outline: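 HCT116 parental cells (2,000/well, McCoy's 5A with 10% FBS) dosed with PRMT5 inhibitors for four days at 37° C. Fixed in paraformaldehyde and methanol, then stained with SYM11 antibody and DRAQ5.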

[5] = tested on: PRMT5-dependent Symmetric Di-methyl Arginine signal in HCT116 homozygous MTAP knockout cells; test: SYM11 In-Cell Western, HCT116 MTAP knockout; assay type: cell-based; settings: Homo sapiens, HCT-116, 96 h, HCT116 homozygous MTAP knockout cells, 4 days of treatment, SYM11/DRAQ5 ratio; read-out: In-cell-Western (SYM11) HCT116 MTAP_KO IC50
[6] = IC50 + 2 μM MTA (nM), in the presence of 2 μM MTA
[7] = in the absence of MTA, read-out: IC50

T1 sequence (O14744 2-637): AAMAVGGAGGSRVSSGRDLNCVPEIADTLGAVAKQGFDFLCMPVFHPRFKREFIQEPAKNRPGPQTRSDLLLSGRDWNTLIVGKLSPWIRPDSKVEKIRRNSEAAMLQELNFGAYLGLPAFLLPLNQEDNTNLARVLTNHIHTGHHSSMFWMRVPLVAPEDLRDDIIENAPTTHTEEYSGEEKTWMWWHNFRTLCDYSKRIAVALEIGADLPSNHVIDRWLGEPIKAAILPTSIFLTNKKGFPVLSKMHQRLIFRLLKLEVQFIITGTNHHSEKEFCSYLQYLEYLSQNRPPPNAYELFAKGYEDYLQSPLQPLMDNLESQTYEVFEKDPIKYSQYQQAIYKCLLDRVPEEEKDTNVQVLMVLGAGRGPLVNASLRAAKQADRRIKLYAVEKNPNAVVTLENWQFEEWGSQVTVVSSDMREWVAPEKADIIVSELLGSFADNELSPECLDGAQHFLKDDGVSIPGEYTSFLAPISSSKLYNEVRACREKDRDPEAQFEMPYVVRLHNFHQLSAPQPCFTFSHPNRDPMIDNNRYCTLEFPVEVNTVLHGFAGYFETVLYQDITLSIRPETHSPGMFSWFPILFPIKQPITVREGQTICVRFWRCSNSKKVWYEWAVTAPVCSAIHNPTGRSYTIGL
T1 sequence (Q9BQA1 2-342 partner): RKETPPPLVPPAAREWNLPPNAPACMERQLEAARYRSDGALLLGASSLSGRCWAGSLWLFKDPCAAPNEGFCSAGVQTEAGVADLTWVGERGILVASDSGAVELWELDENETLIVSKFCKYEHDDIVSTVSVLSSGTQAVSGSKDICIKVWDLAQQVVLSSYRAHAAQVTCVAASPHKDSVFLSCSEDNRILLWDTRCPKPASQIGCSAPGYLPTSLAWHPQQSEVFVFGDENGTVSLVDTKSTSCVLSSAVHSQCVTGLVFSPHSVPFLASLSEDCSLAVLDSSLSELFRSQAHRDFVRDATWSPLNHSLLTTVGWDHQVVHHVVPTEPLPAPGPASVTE

SMILES	IC50 (PRMT5/MEP50 complex [1]; [6]) [nM]	IC50 (PRMT5/MEP50 complex [1]; [7]) [nM]	IC50 (PRMT5/MEP50 complex [2]) [nM]	IC50 [3] [nM]	IC50 [5] [nM]	IC50 (HCT116 parental cells) [nM]	IC50 [4] [nM]
Cc1cccc(-c2c(-c3ccc4c(=O)[nH]nc(CN)c4c3)cnn2C)c1 [Example 4-94, 4-(aminomethyl)-6-(1-methyl-5-(m-tolyl)-1H-pyrazol-4-yl)phthalazin-1(2H)-one]	2.2	83	737	1840	1180	4880	10000
Cn1ncc(-c2ccc3c(=O)[nH]nc(CN)c3c2)c1-c1ccccc1C#N [Example 4-100, 2-(4-(4-(aminomethyl)-1-oxo-1,2-dihydrophthalazin-6-yl)-1-methyl-1H-pyrazol-5-yl)benzonitrile]	0.5	80	1510	5230	505	10000	10000
CCOc1ccn2ncc(-c3ccc4c(=O)[nH]nc(CN)c4c3)c2c1 [Example 4-158, 4-(aminomethyl)-6-(5-ethoxypyrazolo[1,5-a]pyridin-3-yl)phthalazin-1(2H)-one]	2.8	113	1460	2200	> 10000	1740	> 10000
CN(c1ccccc1)c1cncc(-c2ccc3c(=O)[nH]nc(CN)c3c2)c1 [Example 4-159, 4-(aminomethyl)-6-(5-(methyl(phenyl)amino)pyridin-3-yl)phthalazin-1(2H)-one]	4	68.4	393	8250	> 10000	> 10000	> 10000
CCc1cccc(-c2c(-c3cc(C)c4c(=O)[nH]nc(CN)c4c3)cnn2C)c1C#N [Example 10-7, 2-(4-(4-(aminomethyl)-8-methyl-1-oxo-1,2-dihydrophthalazin-6-yl)-1-methyl-1H-pyrazol-5-yl)-6-ethylbenzonitrile]	–	–	107	103	31	8390	> 1000
CCc1cccc(-c2c(-c3cc(F)c4c(=O)[nH]nc(CN)c4c3)cnn2C)c1C#N [Example 10-8, 2-(4-(4-(aminomethyl)-8-fluoro-1-oxo-1,2-dihydrophthalazin-6-yl)-1-methyl-1H-pyrazol-5-yl)-6-ethylbenzonitrile]	–	–	660	276	27	> 10000	4720
CCOc1cccc(-c2c(-c3cc(F)c4c(=O)[nH]nc(CN)c4c3)cnn2C)c1C#N [Example 10-10, 2-(4-(4-(aminomethyl)-8-fluoro-1-oxo-1,2-dihydrophthalazin-6-yl)-1-methyl-1H-pyrazol-5-yl)-6-ethoxybenzonitrile]	–	–	2730	1250	89	> 10000	> 10000
Cc1cc(-c2cnn(C)c2-c2ccc3ccccc3c2C#N)cc2c(CN)n[nH]c(=O)c12 [Example 10-11, 2-(4-(4-(aminomethyl)-8-methyl-1-oxo-1,2-dihydrophthalazin-6-yl)-1-methyl-1H-pyrazol-5-yl)-1-naphthonitrile]	–	–	34	29	5	763	4260
Cc1cc(-c2cnn(C)c2-c2cccc(OC3CC3)c2C#N)cc2c(CN)n[nH]c(=O)c12 [Example 10-12, 2-(4-(4-(aminomethyl)-8-methyl-1-oxo-1,2-dihydrophthalazin-6-yl)-1-methyl-1H-pyrazol-5-yl)-6-cyclopropoxybenzonitrile]	–	–	155	91	6	6200	> 1000

Now from value to molecule, other results behind:

IC50 (PRMT5/MEP50 complex [1]; [6]) [nM]	IC50 (PRMT5/MEP50 complex [1]; [7]) [nM]	IC50 (PRMT5/MEP50 complex [2]) [nM]	IC50 [3] [nM]	IC50 [5] [nM]	SMILES	IC50 (HCT116 parental cells) [nM]	IC50 [4] [nM]
–	–	1970	807	57	[2H]C([2H])(N)c1n[nH]c(=O)c2ccc(-c3cnn(C)c3-c3cccc(Cl)c3C#N)cc12 [Example 11-1, 2-(4-(4-(aminomethyl-d2)-1-oxo-1,2-dihydrophthalazin-6-yl)-1-methyl-1H-pyrazol-5-yl)-6-chlorobenzonitrile]	> 10000	> 1000
–	–	138	94	1	[2H]C([2H])(N)c1n[nH]c(=O)c2ccc(-c3cnn(C)c3-c3ccc4ccccc4c3C#N)cc12 [Example 11-2, 2-(4-(4-(aminomethyl-d2)-1-oxo-1,2-dihydrophthalazin-6-yl)-1-methyl-1H-pyrazol-5-yl)-1-naphthonitrile]	1950	> 10000
–	–	316	158	28	Cc1c(Cl)ccc(-c2c(-c3ccc4c(=O)[nH]nc(CN)c4c3)cnn2C)c1C#N [Example 12-1, 6-(4-(4-(aminomethyl)-1-oxo-1,2-dihydrophthalazin-6-yl)-1-methyl-1H-pyrazol-5-yl)-3-chloro-2-methylbenzonitrile]	> 10000	> 1000
–	–	315	> 10000	16	Cc1ccc(-c2c(-c3ccc4c(=O)[nH]nc(CN)c4c3)cnn2C)c(C#N)c1C [Example 12-2, 6-(4-(4-(aminomethyl)-1-oxo-1,2-dihydrophthalazin-6-yl)-1-methyl-1H-pyrazol-5-yl)-2,3-dimethylbenzonitrile]	208	2200
–	–	212	137	8	CCc1cc(CC)c(C#N)c(-c2c(-c3ccc4c(=O)[nH]nc(CN)c4c3)cnn2C)c1 [Example 12-3, 2-[4-[4-(aminomethyl)-1-oxo-2H-phthalazin-6-yl]-2-methyl-pyrazol-3-yl]-4,6-diethyl-benzonitrile]	1690	> 1000
–	–	178	148	9	Cc1cccc2c(C#N)c(-c3c(-c4ccc5c(=O)[nH]nc(CN)c5c4)cnn3C)ccc12 [Example 12-9, 2-(4-(4-(aminomethyl)-1-oxo-1,2-dihydrophthalazin-6-yl)-1-methyl-1H-pyrazol-5-yl)-5-methyl-1-naphthonitrile]	3350	> 10000
–	–	234	125	18	Cc1cc(C)c(C#N)c(-c2c(-c3ccc4c(=O)[nH]nc(CN)c4c3)cnn2C)c1 [Example 12-11, 2-(4-(4-(aminomethyl)-1-oxo-1,2-dihydrophthalazin-6-yl)-1-methyl-1H-pyrazol-5-yl)-4,6-dimethylbenzonitrile]	8700	1230
–	–	218	1410	95	Cc1c(-c2cnn(C)c2)ccc(-c2c(-c3ccc4c(=O)[nH]nc(CN)c4c3)cnn2C)c1C#N [Example 12-13, 6-(4-(4-(aminomethyl)-1-oxo-1,2-dihydrophthalazin-6-yl)-1-methyl-1H-pyrazol-5-yl)-2-methyl-3-(1-methyl-1H-pyrazol-4-yl)benzonitrile]	2000	> 1000
–	–	182	226	15	Cc1cc(C2CC2)cc(-c2c(-c3ccc4c(=O)[nH]nc(CN)c4c3)cnn2C)c1C#N [Example 12-14, 2-[4-[4-(aminomethyl)-1-oxo-2H-phthalazin-6-yl]-2-methyl-pyrazol-3-yl]-4-cyclopropyl-6-methyl-benzonitrile]	> 10000	1810
